This note sets out measurements from US5684151A, “1-arylsulphonyl, arylcarbonyl and 1-arylphosphonyl-3-phenyl-1,4,5,6-tetrahydropyridazines” (priority 1995, dated 1997).

SMILES strings stand for the structures. Read-outs that look alike come from different tables or passages of the source.

The test system of the assay is mouse (MC3T3-E1) and human (TE-85) osteoblast-line cells. The assay is classed as cell-based. From the text:
Compounds of the present invention have utility to treat osteoporosis through enhancement of bone calcification rather than traditional approaches which generally involve inhibition of bone degeneration or resorption. The compounds of the present invention have been evaluated as stimulators of proliferation of osteoblast cell and chick calivaria bone organ culture which is predictive of enhancement of bone mass and bone formation in vivo.
The action of select compounds to stimulate osteoblast growth was measured in culture by estimating the rate of DNA synthesis by the rate of ^3 H-thymidine incorporation into DNA. Only cells undergoing mitosis synthesized new DNA and thus only these cells incorporated the radiolabelled DNA-specific thymidine. The stimulation of the proliferation and differentiation of bone-forming cells, osteoblasts, was a prerequisite for an increase in bone formation and bone mass. The ability of agents to increase osteoblast proliferation and differentiation can be predicted by their action on cultured osteoblast-line cells in vitro. In this test, mouse (MC3T3-E1) and human (TE-85) osteoblast-line cells (American Type Tissue Culture Collection, #CRL 1543, Rockville, Md. cloned by Sudo et al., Koriyama, Japan) were cultured in vitro and the effect of various agents were tested on osteoblast cell proliferation. Cells were harvested from large culture flasks where they were allowed to grow to near confluency using trypsin. The cells were plated into 96 well culture plates, 1600 cells in 100 μL per well in Dulbencos Modified Eagle's Medium (DMEM) with 25 mM HEPES buffer, L-glutamine (584 mg/L); D-glucose (4.5 g/L) supplemented with fetal bovine sera (10%); penicillin (100 units/mL) and streptomycin (100 mcg/mL); sodium pyruvate (10 μM final concentration). The cells were allowed to plate overnight in DMEM containing 10% fetal bovine sera at 37° C. in an atmosphere of 5% CO2/95% air. Following their placement into 96 well culture plates all the osteoblast-line cells, either the MC3T3-E1 or the TE-85 cell lines, were allowed an additional 24 hours preincubation period in media containing only 0.1% fetal bovine sera.
Twenty hours later, a 20 μL aliquot of media containing 0.4 μCi of ^3 H-thymidine was added to each culture well. The cells were then incubated an additional 4 hours. The incubation was terminated by aspirating the media and washing with HBSS (Hank's Balanced Salt Solution). The cells were then treated with 100 μL of 0.5% trypsin and 5.3 mM EDTA for 30 minutes at room temperature. The cells were then aspirated onto glass fiber filter and washed with water. The radioactivity on the filters was quantified by liquid scintillation spectroscopy. The rate of ^3 H-thymidine incorporation into DNA was then utilized as an index of cell proliferation. The results are shown in Table 13 expressed as % times control where the control is 100%. […]

Regarding `O=C(c1ccc(F)c(Br)c1)N1CCCC(c2ccccc2)=N1` [Compound 229], the “Osteoblast Cell Proliferation, 3H-thymidine incorporation vs control (100%)” value (shortened to “Osteoblast Cell Proliferation … (100%)”) by setting is: (10^-7) 104%; (10^-8) 86%; (10^-9) 99%; (10^-10) 114%.

`S=C(c1cc(Cl)cc(Cl)c1)N1CCCC(c2ccccc2)=N1` [Compound 247]: the “Osteoblast Cell Proliferation … (100%)” value is, setting by setting: (10^-7) 118%; (10^-8) 122%; (10^-9) 122%; (10^-10) 129%.

As to `COP(=O)(c1ccccc1)N1CCCC(c2ccc(F)cc2)=N1` (stereo not shown) [Compound 258], the “Osteoblast Cell Proliferation … (100%)” value is reported as 107% (10^-6); 107% (10^-7); 108% (10^-8); 107% (10^-9); 98% (10^-10).

For `CC1CC(c2ccccc2)=NN(C(=O)c2ccc(F)c(F)c2)C1` (racemic) [Compound 235, (R,S)-1-(3,4-difluorobenzoyl)-5-methyl-3-phenyl-1,4,5,6-tetrahydropyridazine], the “Osteoblast Cell Proliferation … (100%)” value reads like this: (10^-7) 86%; (10^-8) 87%; (10^-9) 92%; (10^-10) 88%.

Take `O=S(=O)(/C=C/c1ccccc1)N1CCCC(c2ccc3c(c2)CCCC3)=N1` [Compound 176]: the “Osteoblast Cell Proliferation … (100%)” value reads like this: (10^-6) 59%; (10^-7) 94%; (10^-8) 109%; (10^-9) 113%; (10^-10) 109%.

For `COP(=O)(c1ccccc1)N1CCCC(c2ccc(Br)cc2)=N1` (stereo not shown) [Compound 260], the “Osteoblast Cell Proliferation … (100%)” value reads like this: (10^-6) 100%; (10^-7) 115%; (10^-8) 105%; (10^-9) 99%; (10^-10) 90%.

In the case of `Nc1c(Br)cc(C2=NN(C(=O)c3ccc(Cl)c(Cl)c3)CCC2)cc1Br` [Compound 265, (3-4-Amino-3,5-dibromophenyl)-1-(3,4-dichlorobenzoyl)-1,4,5,6-tetrahydropyridazine], the “Osteoblast Cell Proliferation … (100%)” value by setting is: (10^-7) 110%; (10^-8) 112%; (10^-9) 112%; (10^-10) 115%.

Take `CCCCCCc1ccc(S(=O)(=O)N2CCCC(c3ccc(Cl)c(Cl)c3)=N2)cc1` [Compound 121]: the “Osteoblast Cell Proliferation … (100%)” value runs as follows: (10^-6) 120%; (10^-7) 123%; (10^-8) 122%; (10^-9) 120%; (10^-10) 181%.

Turning to `O=S(=O)(c1cccc2ccccc12)N1CCCC(c2ccc(Cl)cc2)=N1` [Compound 44], the “Osteoblast Cell Proliferation … (100%)” value (10^-6) turned out to be 86%; the “Osteoblast Cell Proliferation … (100%)” value (10^-7) turned out to be 107%; the “Osteoblast Cell Proliferation … (100%)” value (10^-8) was determined as 105%; the “Osteoblast Cell Proliferation … (100%)” value (10^-9) worked out at 95%; the “Osteoblast Cell Proliferation … (100%)” value (10^-10) is 87%.

For the compound `O=C(c1cc(Cl)cc(Cl)c1)N1CCCC(c2ccccc2)=N1` [Compound 232], the “Osteoblast Cell Proliferation … (100%)” value was 110% (10^-7), 115% (10^-8), 115% (10^-9) and 121% (10^-10).

In the case of `CC1(C)CC(c2ccccc2)=NN(C(=O)c2ccc(Cl)c(Cl)c2)C1` [Compound 234], the “Osteoblast Cell Proliferation … (100%)” value (10^-7) is 95%; the “Osteoblast Cell Proliferation … (100%)” value (10^-8) came to 84%; the “Osteoblast Cell Proliferation … (100%)” value (10^-9) came out at 84%; the “Osteoblast Cell Proliferation … (100%)” value (10^-10) stood at 111%.

On to `CCCCc1ccc(C2=NN(P(=O)(OC)c3ccccc3)CCC2)cc1` (stereo not shown) [Compound 251], for which the “Osteoblast Cell Proliferation … (100%)” value runs as follows: (10^-6) 109%; (10^-7) 104%; (10^-8) 111%; (10^-9) 91%; (10^-10) 111%.

For the compound `CC1CC(c2ccccc2)=NN(C(=S)c2ccc(Cl)c(Cl)c2)C1` (racemic) [Compound 248, (R,S)-1-(3,4-dichlorothiobenzoyl)-5-methyl-3-phenyl-1,4,5,6-tetrahydropyridazine], the “Osteoblast Cell Proliferation … (100%)” value runs as follows: (10^-7) 142%; (10^-8) 130%; (10^-9) 140%; (10^-10) 149%.

For `CCCCc1ccc(C2=NN(C(=O)c3ccc(Cl)c(Cl)c3)CCC2)cc1` [Compound 231], the “Osteoblast Cell Proliferation … (100%)” value amounted to 115% (10^-7), 103% (10^-8), 145% (10^-9) and 133% (10^-10).

With `Cc1ccc(/C=C/S(=O)(=O)N2CCCC(c3ccc(Cl)c(Cl)c3)=N2)cc1` [Compound 169], the “Osteoblast Cell Proliferation … (100%)” value reads like this: (10^-6) 128%; (10^-7) 131%; (10^-8) 133%; (10^-9) 134%; (10^-10) 195%.

`S=C(c1ccc(Cl)c(Cl)c1)N1CCCC(c2ccccc2)=N1` [Compound 237, 1-(3,4-dichlorothiobenzoyl)-3-phenyl-1,4,5,6-tetrahydropyridazine]: the “Osteoblast Cell Proliferation … (100%)” value (10^-7) was found to be 113%; the “Osteoblast Cell Proliferation … (100%)” value (10^-8) came to 113%; the “Osteoblast Cell Proliferation … (100%)” value (10^-9) is 110%; the “Osteoblast Cell Proliferation … (100%)” value (10^-10) is listed as 119%.

In the case of `O=S(=O)(/C=C/c1ccc(-c2ccccc2)cc1)N1CCCC(c2ccc(Cl)c(Cl)c2)=N1` [Compound 168], the “Osteoblast Cell Proliferation … (100%)” value reads like this: (10^-6) 67%; (10^-7) 82%; (10^-8) 82%; (10^-9) 76%; (10^-10) 109%.

Consider `Fc1ccc(C(=S)N2CCCC(c3ccc(Cl)c(Cl)c3)=N2)cc1F` [Compound 236, 3-(3,4-Dichlorophenyl)-1-(3,4-difluorothiobenzoyl)-1,4,5,6-tetrahydropyridazine], for which the “Osteoblast Cell Proliferation … (100%)” value by setting is: (10^-7) 109%; (10^-8) 102%; (10^-9) 106%; (10^-10) 115%.

As to `CCOP(=O)(c1ccccc1)N1CCCC(c2ccc(F)cc2)=N1` (stereo not shown) [Compound 259], the “Osteoblast Cell Proliferation … (100%)” value is, setting by setting: (10^-6) 116%; (10^-7) 96%; (10^-8) 102%; (10^-9) 121%; (10^-10) 106%.
